What was measured:
Aβtotal [1] = test: Method 2: Aβtotal Alphalisa on supernatant of SKNBE2 cells carrying APP 695 wild type; type: cell-based; conditions: Homo sapiens, SKNBE2 cells APP 695 wild type, overnight
How it was run: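 SKNBE2 cells expressing wild-type APP695 (10^4/well) were incubated overnight at 37 °C with compound at several concentrations. Secreted Aβ42 (C-terminal/N-terminal antibody pair) and Aβtotal (N-terminal/4G8 pair) were measured by AlphaLISA in the supernatant. IC50 values came from 4-parameter fits of percent of untreated control.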

Aβ42 = test: In vivo efficacy: Aβ42 lowering in brain (ELISA); set-up: species or system mouse; conditions: brain soluble fraction; typical protocol: single oral dose, overnight fasted animals, after four hours
From the text: (§1) To determine whether acute administration of an Aβ42 lowering agent would reduce Aβ42 levels in vivo, non-transgenic rodents, e.g. mice or rats were used. Alternatively, two to three month old Tg2576 mice expressing APP695 containing the “Swedish” variant can be used or a transgenic mouse model developed by Dr. Fred Van Leuven (K.U.Leuven, Belgium) and co-workers, with neuron-specific expression of a clinical mutant of the human amyloid precursor protein [V717I] (Moechars et al., 1999 J. Biol. Chem. 274, 6483). Young transgenic mice have high levels of Aβ in the brain but no detectable Aβ deposition. At approximately 6-8 months of age, the transgenic mice start to display spontaneous, progressive accumulation of β-amyloid (A13) in the brain, eventually resulting in amyloid plaques within the subiculum, hippocampus and cortex. Animals treated with the Aβ42 lowering agent were examined and compared to those untreated or treated with vehicle and brain levels of soluble Aβ42 and total Aβ would be quantitated by standard techniques, for example, using ELISA. Treatment periods varied from hours to days and were adjusted based on the results of the Aβ42 lowering once a time course of onset of effect could be established.
(§2) A typical protocol for measuring Aβ42 lowering in vivo is shown but it is only one of many variations that could be used to optimize the levels of detectable Aβ. For example, Aβ42 lowering compounds were formulated in 20% of Captisol® (a sulfobutyl ether of β-cyclodextrin) in water or 20% hydroxypropyl β cyclodextrin. The Aβ42 lowering agents were administered as a single oral dose or by any acceptable route of administration to overnight fasted animals. After four hours, the animals were sacrificed and Aβ42 levels were analysed.
(§3) Blood was collected by decapitation and exsanguinations in EDTA-treated collection tubes. Blood was centrifuged at 1900 g for 10 minutes (min) at 4° C. and the plasma recovered and flash frozen for later analysis. The brain was removed from the cranium and hindbrain. The cerebellum was removed and the left and right hemisphere were separated. The left hemisphere was stored at −18° C. for quantitative analysis of test compound levels. The right hemisphere was rinsed with phosphate-buffered saline (PBS) buffer and immediately frozen on dry ice and stored at −80° C. until homogenization for biochemical assays.
(§4) Mouse brains were resuspended in 10 volumes of 0.4% DEA (diethylamine)/50 mM NaCl pH 10 (for non-transgenic animals) or 0.1% 3-[(3-cholamidopropyl)-dimethyl-ammonio]-1-propanesulfonate (CHAPS) in tris buffered saline (TBS) (for transgenic animals) containing protease inhibitors (Roche-11873580001 or 04693159001) per gram of tissue, e.g. for 0.158 g brain, add 1.58 ml of 0.4% DEA. All samples were sonicated for 30 sec on ice at 20% power output (pulse mode). Homogenates were centrifuged at 221.300×g for 50 min. The resulting high speed supernatants were then transferred to fresh tubes and were optionally further purified before the next step. A portion of the supernatant was neutralized with 10% 0.5 M Tris-HCl and this was used to quantify Aβtotal.
(§5) The obtained supernatants were purified with Water Oasis HLB reverse phase columns (Waters Corp., Milford, Mass.) to remove non-specific immunoreactive material from the brain lysates prior subsequent Aβ detection. Using a vacuum manifold, all solutions were passed through the columns at a rate of approximately 1 ml/min, so the vacuum pressure was adjusted accordingly throughout the procedure. Columns were preconditioned with 1 ml of 100% MeOH, before equilibration with 1 ml of H2O, Non-neutralized brain lysates were loaded onto the columns. The loaded samples were then washed twice with the first wash performed with 1 ml of 5% MeOH, and the second wash with 1 ml of 30% MeOH. Finally, the Aβ was eluted from the columns and into 100×30 mm glass tubes, with a solution of 90% MeOH with 2% NH4OH. […]

Aβtotal [2] = test: In vivo efficacy: Aβtotal in brain (ELISA); set-up: species or system mouse; conditions: brain soluble fraction; typical protocol: single oral dose, overnight fasted animals, after four hours
From the text: as §1, §2, §3, §4, §5

| SMILES | IC50 (Aβtotal [1]) | melting point | Aβ42 (% Ctrl) _Mean (Aβ42) | Aβtotal (% Ctrl) _Mean (Aβtotal [2]) |
| --- | --- | --- | --- | --- |
| COc1cccc(-n2nc3c(Nc4ccc(-c5cnc(C)o5)cc4)cccc3c2C)c1 [Compound 29, 2-(3-methoxyphenyl)-3-methyl-N-[4-(2-methyl-5-oxazolyl)phenyl]-2H-indazol-7-amine] | > 10 µM | 152.2 °C | 96 % Ctrl | 98 % Ctrl |
| COc1cccc(-n2cc3cccc(Nc4ccc(-n5cnc(C)c5)c(OC)c4)c3n2)c1 [Compound 1, N-[3-methoxy-4-(4-methyl-1H-imidazol-1-yl)phenyl]-2-(3-methoxyphenyl)-2H-indazol-7-amine] | 8.32 µM | – | 94 % Ctrl | 108 % Ctrl |
| COc1cc(Nc2cccc3cn(CC4CC4)nc23)ccc1-c1cnc(C)o1.Cl [Compound 38, 2-(cyclopropylmethyl)-N-[3-methoxy-4-(2-methyl-5-oxazolyl)phenyl]-2H-indazol-7-amine HCl] | 4.68 µM | – | 123 % Ctrl | 106 % Ctrl |
| COc1cc(Nc2cccc3cn(Cc4ccc(F)cc4)nc23)ccc1-n1cnc(C)c1 [Compound 15, 2-[(4-fluorophenyl)methyl]-N-[3-methoxy-4-(4-methyl-1H-imidazol-1-yl)phenyl]-2H-indazol-7-amine] | 6.61 µM | – | 69 % Ctrl | 94 % Ctrl |

Second part, led by results:

| IC50 (Aβtotal [1]) | melting point | SMILES | Aβ42 (% Ctrl) _Mean (Aβ42) | Aβtotal (% Ctrl) _Mean (Aβtotal [2]) |
| --- | --- | --- | --- | --- |
| 4.37 µM | 194.4 °C | COc1cccc(-n2nc3c(Nc4ccc(-c5cnc(C)o5)c(OC)c4)nccc3c2C)c1 [Compound 42, N-[3-methoxy-4-(2-methyl-5-oxazolyl)phenyl]-2-(3-methoxyphenyl)-3-methyl-2H-pyrazolo[3,4-c]pyridin-7-amine] | 104 % Ctrl | 100 % Ctrl |
| 6.46 µM | 184.4 °C | COc1cccc(-n2nc3c(Nc4ccc(-n5cnc(C)c5)c(OC)c4)cccc3c2C)c1 [Compound 2, N-[3-methoxy-4-(4-methyl-1H-imidazol-1-yl)phenyl]-2-(3-methoxyphenyl)-3-methyl-2H-indazol-7-amine] | 59 % Ctrl | 90 % Ctrl |
| 3.98 µM | – | COc1cc(Nc2cccc3cn(CC(F)(F)F)nc23)ccc1-c1cnc(C)o1 [Compound 6, N-[3-methoxy-4-(2-methyl-5-oxazolyl)phenyl]-2-(2,2,2-trifluoroethyl)-2H-indazol-7-amine] | 79 % Ctrl | 95 % Ctrl |

Reference: patent US20120095036A1, “NOVEL SUBSTITUTED INDAZOLE AND AZA-INDAZOLE DERIVATIVES AS GAMMA SECRETASE MODULATORS” (priority 2009, published 2012)
